In patent US10570431B2, “Compositions comprising a polypeptide having cellulolytic enhancing activity and a heterocyclic compound and uses thereof” (priority 2013, dated 2020):
Like-named read-outs stand apart in the source and are kept apart here.

What was measured:
Assay type in all cases: biochemical
[1] = tested on: Trichoderma reesei cellulase composition; experiment: Hydrolysis of AVICEL (microcrystalline cellulose) by the T. reesei cellulase composition, with/without GH61 polypeptide or heterocyclic compound; conditions: for heterocyclic compound effect(no GH61) (ratio of percent conversion with compound to without) / heterocyclic compound effect(no GH61): AVICEL; for Percent conversion of AVICEL: GH61 present, no heterocyclic compound, one experiment
[2] = tested on: Trichoderma reesei cellulase composition; conditions: milled washed PCS, no GH61
[3] = tested on: Trichoderma reesei cellulase composition; conditions: milled unwashed PCS, compound 5 mM, no GH61
[4] = compound 10 mM, cellulase 2 mg per g cellulose, especially at day 3
[5] = 1 day, 13.7±0.6% in the absence of GH61
[6] = 3 days, 28.6±0.4% in the absence of GH61
[7] = 7 days, 44±1% in the absence of GH61

O=CC(=O)C[C@H](O)[C@H](O)CO [3-deoxyglucosone, 3-deoxy-D-erythro-hexosulose]
heterocyclic compound effect(no GH61) (ratio of percent conversion with compound to without) ([1]; compound 5 mM, 1, 3 and 7 days): ~1

O=C1O[C@H](CO)[C@H](O)[C@H]1O [D-xylonic γ-lactone]
heterocyclic compound effect(no GH61) ([1]; compound 5 mM, day 1 or 7): ~1

O=Cc1ccc(CO)o1 [5-(hydroxymethyl)furfural]
heterocyclic compound effect(no GH61) ([1]; compound 1 mM, 1, 3 and 7 days): greater than 1

O=C(CO)c1ccccc1 [2-hydroxyacetophenone]
heterocyclic compound effect(no GH61) (ratio of percent conversion with compound to without) ([1]; compound 5 mM, 1, 3 and 7 days): less than 1
heterocyclic compound effect(no GH61) ([1]; compound 10 mM, 1 and 3 days): significantly decreased the day 3 hydrolysis
heterocyclic compound effect(no GH61) ([2]; compound 5 mM, 1, 3 and 7 days): slightly decreased
heterocyclic compound effect(no GH61) ([3]; cellulase 2 mg per g cellulose, 1, 3 and 7 days): greater than 1

Cc1cc(O)no1 [3-hydroxy-5-methylisoxazole]
heterocyclic compound effect(no GH61) (ratio of percent conversion with compound to without) ([1]; compound 5 mM, 1, 3 and 7 days): ~1

CC1=C(O)C(=O)CO1 [4-hydroxy-5-methyl-3-furanone]
heterocyclic compound effect(no GH61) [2, 4]: < 1

C=C(C)CO [2-methyl-2-propen-1-ol]
heterocyclic compound effect(no GH61) (ratio of percent conversion with compound to without) ([1]; compound 5 mM, 1, 3 and 7 days): decreased later stages of hydrolysis

OC[C@H]1OC=C[C@@H](O)[C@@H]1O [D-glucal, 1,5-anhydro-2-deoxy-D-arabino-hex-1-enitol]
heterocyclic compound effect(no GH61) (ratio of percent conversion with compound to without) ([1]; compound 5 mM, 1, 3 and 7 days): less than 1

O=C1O[C@H](CO)[C@@H](O)[C@H]1O [ribonic γ-lactone]
heterocyclic compound effect(no GH61) (ratio of percent conversion with compound to without) ([1]; compound 5 mM, 1, 3 and 7 days): less than 1

O=c1cc(O)c2ccccc2o1 [4-hydroxycoumarin]
heterocyclic compound effect(no GH61) ([1]; compound 1 mM, 1, 3 and 7 days): very slightly decreased

O=C1OC(C(O)CO)C(=O)C1=O (stereo not drawn) [dehydroascorbic acid, [1,2-dihydroxyethyl]furan-2,3,4(5H)-trione]
heterocyclic compound effect(no GH61) (ratio of percent conversion with compound to without) ([1]; compound 5 mM, 1, 3 and 7 days): very slightly decreased
heterocyclic compound effect(no GH61) ([1]; compound 10 mM, 1 and 3 days): very slightly decreased the day 3 hydrolysis
heterocyclic compound effect(no GH61) ([2]; compound 5 mM, 1, 3 and 7 days): very slightly decreased
heterocyclic compound effect(no GH61) [2, 4]: < 1
heterocyclic compound effect(no GH61) ([3]; mid to late stages of hydrolysis): greater than 1

B1: Trichoderma reesei GH61B polypeptide: GH61B polypeptide having cellulolytic enhancing activity (SEQ ID NO: 16), recombinantly prepared using Aspergillus oryzae JaL250 as a host (protein, listed as Trichoderma reesei)
chain: MKSCAILAALGCLAGSVLGHGQVQNFTINGQYNQGFILDYYYQKQNTGHFPNVAGWYAEDLDLGFISPDQYTTPDIVCHKNAAPGAISATAAAGSNIVFQWGPGVWPHPYGPIVTYVVECSGSCTTVNKNNLRWVKIQEAGINYNTQVWAQQDLINQGNKWTVKIPSSLRPGNYVFRHELLAAHGASSANGMQNYPQCVNIAVTGSGTKALPAGTPATQLYKPTDPGILFNPYTTITSYTIPGPALWQG
Percent conversion of AVICEL [1, 5]: 13.5±0.4%
Percent conversion of AVICEL [1, 6]: 29±2%
Percent conversion of AVICEL [1, 7]: 44±2%

B2: Penicillium pinophilum GH61A polypeptide: GH61A polypeptide having cellulolytic enhancing activity (SEQ ID NO: 32), recombinantly prepared using Aspergillus oryzae HowB101 as a host (protein, listed as Penicillium pinophilum)
chain: MPSTKVAALSAVLALASTVAGHGFVQNIVIDGKSYSGYLVNQFPYESNPPAVIGWATTATDLGFVAPSEYTNADIICHKNATPGALSAPVAAGGTVELQWTTWPDSHHGPVISYLANCNGNCSTVDKTKLDFVKIDQGGLIDDTTPPGTWASDKLIAANNSWTVTIPSTIAPGNYVLRHEIIALHSAGNADGAQNYPQCINLEITGSGTAAPSGTAGEKLYTSTDPGILVNIYQSLSTYVIPGPTLWSGAANGAVATGSATAVATTATASATATPTTLVTSVAPASSTFATAVVTTVAPAVTDVVTVTDVVTVTTVITTTVL
Percent conversion of AVICEL [1, 5]: 14.1±0.4%
Percent conversion of AVICEL [1, 6]: 28.5±0.5%
Percent conversion of AVICEL [1, 7]: 46±2%

B3: Talaromyces stipitatus GH61A polypeptide: GH61A polypeptide having cellulolytic enhancing activity (SEQ ID NO: 164), recombinantly prepared as described in Example 3 (protein, listed as Talaromyces stipitatus)
chain: MPSTKVAALSAVLALASTVAGHGFVQNIVIDGKSYTGYLVNQYPYQSNPPAVIGWSTTATDLGFVDGSGYTNPDIICHKNAKPGQLSAPVAAGGKVELEWTTWPESHHGPVISYLANCNGDCTTVDKTKLEFVKIDQRGLIDDSNPPGTWAADQLIAANNSWTVTIPESIAPGNYVLRHEIIALHSANNATGAQNYPQCINLQITGSGTANPSGTPGEKLYTPTDPGILVNIYQSLSSYVIPGPTLWSGAAAHVVATAAGSATGVASATATPTTLVTAVSSPTGAPSVVTPEAPSVTSFAPVVTVTDVVTVTTVITTTIS
Percent conversion of AVICEL [1, 5]: 13.6±0.4%
Percent conversion of AVICEL [1, 6]: 27.9±0.2%
Percent conversion of AVICEL [1, 7]: 44.7±0.5%

B4: Aspergillus fumigatus GH61B polypeptide: GH61 polypeptide having cellulolytic enhancing activity (SEQ ID NO: 30), recombinantly prepared using Aspergillus oryzae JaL355 as a host (protein, listed as Aspergillus fumigatus)
chain: MTLSKITSIAGLLASASLVAGHGFVSGIVADGKYYGGYLVNQYPYMSNPPDTIAWSTTATDLGFVDGTGYQSPDIICHRDAKNGKLTATVAAGSQIEFQWTTWPESHHGPLITYLAPCNGDCATVDKTTLKFVKIAAQGLIDGSNPPGVWADDEMIANNNTATVTIPASYAPGNYVLRHEIIALHSAGNLNGAQNYPQCFNIQITGGGSAQGSGTAGTSLYKNTDPGIKFDIYSDLSGGYPIPGPALFNA
Percent conversion of AVICEL [1, 5]: 13.6±0.2%
Percent conversion of AVICEL [1, 6]: 29±1%
Percent conversion of AVICEL [1, 7]: 46±2%

B5: Thielavia terrestris GH61E polypeptide: GH61E polypeptide having cellulolytic enhancing activity (SEQ ID NO: 8), recombinantly prepared using Trichoderma reesei RutC30 as a host (protein, listed as Thielavia terrestris)
chain: MLANGAIVFLAAALGVSGHYTWPRVNDGADWQQVRKADNWQDNGYVGDVTSPQIRCFQATPSPAPSVLNTTAGSTVTYWANPDVYHPGPVQFYMARVPDGEDINSWNGDGAVWFKVYEDHPTFGAQLTWPSTGKSSFAVPIPPCIKSGYYLLRAEQIGLHVAQSVGGAQFYISCAQLSVTGGGSTEPPNKVAFPGAYSATDPGILINIYYPVPTSYQNPGPAVFSC
Percent conversion of AVICEL ([1]; 1 day, 19.5±0.2% in the absence of GH61): 20.5±0.5%
Percent conversion of AVICEL ([1]; 3 days, 27±1% in the absence of GH61): 27±1%
Percent conversion of AVICEL ([1]; 7 days, 43±1% in the absence of GH61): 43.0±0.3%
